Data as given in PubChem BioAssay AID330 (DTP/NCI, 2004).
Several values for one entry are separate records, joined by “and”; a condition that tells them apart may be missing. Equal entries are not always repeated. Inconclusive results and toxic doses are left out.

Tested on: P388 leukemia ip, CD2F1 mice, survival T/C
Assay: NCI In Vivo Anticancer Drug Screen. Data for tumor model P388 Leukemia (intraperitoneal) in CD2F1 (CDF1) mice
Details: endpoint: median survival time, higher = longer survival
Procedure, shortened: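 Mice carrying the transplanted tumor received test compound or vehicle. Survival was recorded in each group, and the value is the treated-group measurement divided by that of the vehicle-treated control group.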

[1] = dose: 60.0 mg/kg/injection, schedule: Q01DX005 (ip), vehicle: Klucel (hydroxypropylcellulose) (HPC)
[2] = dose: 120.0 mg/kg/injection, schedule: Q01DX005 (ip), vehicle: Klucel (hydroxypropylcellulose) (HPC)
[3] = dose: 240.0 mg/kg/injection, schedule: Q01DX005 (ip), vehicle: Klucel (hydroxypropylcellulose) (HPC)
[4] = dose: 50.0 mg/kg/injection, schedule: Q01DX005 (ip), vehicle: Klucel (hydroxypropylcellulose) (HPC)
[5] = dose: 100.0 mg/kg/injection, schedule: Q01DX005 (ip), vehicle: Klucel (hydroxypropylcellulose) (HPC)
[6] = dose: 200.0 mg/kg/injection, schedule: Q01DX005 (ip), vehicle: Klucel (hydroxypropylcellulose) (HPC)
[7] = dose: 100.0 mg/kg/injection, schedule: Q04DX002 (ip), vehicle: saline with Tween-80
[8] = dose: 200.0 mg/kg/injection, schedule: Q04DX002 (ip), vehicle: saline with Tween-80
[9] = dose: 400.0 mg/kg/injection, schedule: Q04DX002 (ip), vehicle: saline with Tween-80
[10] = dose: 100.0 mg/kg/injection, schedule: Q01DX009 (ip), vehicle: saline with Tween-80

CSC(=S)NN=C1CCCCC1
T/C (dose: 0.78 mg/kg/injection, schedule: Q01DX009 (ip), vehicle: saline with Tween-80): 97 % of control | T/C (dose: 1.56 mg/kg/injection, schedule: Q01DX009 (ip), vehicle: saline with Tween-80): 108 % of control | T/C (dose: 3.13 mg/kg/injection, schedule: Q01DX009 (ip), vehicle: saline with Tween-80): 105 % of control | T/C (dose: 6.25 mg/kg/injection, schedule: Q01DX009 (ip), vehicle: saline with Tween-80): 98 % of control | T/C (dose: 12.5 mg/kg/injection, schedule: Q01DX009 (ip), vehicle: saline with Tween-80): 113 % of control

CCCCCC(C(=O)OCC)/C(C)=N\NC(N)=S (centres undefined)
T/C [1]: 100 % of control | T/C [2]: 98 % of control | T/C [3]: 100 % of control

Cc1ccc(-c2csc3nc(C)c(CN4CCOCC4)c(=O)n23)cc1
T/C (dose: 25.0 mg/kg/injection, schedule: Q04DX002 (ip), vehicle: Klucel (hydroxypropylcellulose) (HPC)): 99 % of control | T/C (dose: 50.0 mg/kg/injection, schedule: Q04DX002 (ip), vehicle: Klucel (hydroxypropylcellulose) (HPC)): 106 % of control | T/C (dose: 100.0 mg/kg/injection, schedule: Q04DX002 (ip), vehicle: Klucel (hydroxypropylcellulose) (HPC)): 101 % of control | T/C (dose: 200.0 mg/kg/injection, schedule: Q04DX002 (ip), vehicle: Klucel (hydroxypropylcellulose) (HPC)): 102 % of control

CCCCCCCCCN1CCS(=O)(=O)CC1
T/C (dose: 50.0 mg/kg/injection, schedule: Q01DX009 (ip), vehicle: Klucel (hydroxypropylcellulose) (HPC)): 94 % of control | T/C (dose: 100.0 mg/kg/injection, schedule: Q01DX009 (ip), vehicle: Klucel (hydroxypropylcellulose) (HPC)): 98 % of control | T/C (dose: 200.0 mg/kg/injection, schedule: Q01DX009 (ip), vehicle: Klucel (hydroxypropylcellulose) (HPC)): 103 % of control

CCCCCNc1ncnc2c(C)[nH]nc12
T/C (dose: 12.5 mg/kg/injection, schedule: Q01DX005 (ip), vehicle: Klucel (hydroxypropylcellulose) (HPC)): 105 % of control | T/C (dose: 25.0 mg/kg/injection, schedule: Q01DX005 (ip), vehicle: Klucel (hydroxypropylcellulose) (HPC)): 98 % of control | T/C [4]: 91 % of control | T/C [5]: 90 % of control | T/C [6]: 90 % of control

CC(=O)c1c(OCC(O)CN2CCCCC2)ccc2c(C)cc(=O)oc12 (centres undefined)
T/C [7]: 100 % of control | T/C [8]: 101 % of control

COc1cccc2c1C(=O)c1c(O)c3c(c(O)c1C2=O)CC1(O)CC3OC1(C)OC (centres undefined)
T/C (dose: 1.56 mg/kg/injection, schedule: Q01DX009 (ip), vehicle: other): 104 % of control | T/C (dose: 3.13 mg/kg/injection, schedule: Q01DX009 (ip), vehicle: other): 100 % of control | T/C (dose: 6.25 mg/kg/injection, schedule: Q01DX009 (ip), vehicle: other): 96 % of control | T/C (dose: 12.5 mg/kg/injection, schedule: Q01DX009 (ip), vehicle: other): 106 % of control | T/C (dose: 25.0 mg/kg/injection, schedule: Q01DX009 (ip), vehicle: other): 106 % of control | T/C (dose: 25.0 mg/kg/injection, schedule: Q04DX003 (ip), vehicle: water): 101 % of control | T/C (dose: 50.0 mg/kg/injection, schedule: Q04DX003 (ip), vehicle: water): 100 % of control | T/C (dose: 100.0 mg/kg/injection, schedule: Q04DX003 (ip), vehicle: water): 100 % of control | T/C (dose: 200.0 mg/kg/injection, schedule: Q04DX003 (ip), vehicle: water): 103 % of control | T/C (dose: 400.0 mg/kg/injection, schedule: Q04DX003 (ip), vehicle: water): 99 % of control

O=S(=O)(c1ccccc1)N1CC2(CN(S(=O)(=O)c3ccccc3)c3ccccc31)CN(S(=O)(=O)c1ccccc1)c1ccccc1N(S(=O)(=O)c1ccccc1)C2
T/C (dose: 100.0 mg/kg/injection, schedule: Q01DX001 (ip), vehicle: saline with Tween-80): 90 % of control | T/C (dose: 200.0 mg/kg/injection, schedule: Q01DX001 (ip), vehicle: saline with Tween-80): 87 % of control | T/C (dose: 400.0 mg/kg/injection, schedule: Q01DX001 (ip), vehicle: saline with Tween-80): 88 % of control

NC(=O)N/N=C1\CCCCC12CCCC2
T/C [7]: 102 % of control | T/C [8]: 102 % of control | T/C [9]: 100 % of control

O=C1NC(=O)C2=C1CCC2Br (centres undefined)
T/C (dose: 3.13 mg/kg/injection, schedule: Q01DX009 (ip), vehicle: distilled water + Tween-80): 101 % of control | T/C (dose: 6.25 mg/kg/injection, schedule: Q01DX009 (ip), vehicle: distilled water + Tween-80): 102 % of control

Nc1nc(=S)c2[nH]c(=S)[nH]c2[nH]1
T/C (dose: 25.0 mg/kg/injection, schedule: Q04DX003 (ip), vehicle: saline with Tween-80): 118 % of control | T/C (dose: 50.0 mg/kg/injection, schedule: Q04DX003 (ip), vehicle: saline with Tween-80): 118 % of control | T/C [10]: 118 % of control | T/C (dose: 100.0 mg/kg/injection, schedule: Q04DX003 (ip), vehicle: saline with Tween-80): 118 % of control | T/C (dose: 264.0 mg/kg/injection, schedule: Q04DX003 (ip), vehicle: saline with Tween-80): 150 % of control | T/C (dose: 400.0 mg/kg/injection, schedule: Q01DX009 (ip), vehicle: saline with Tween-80): 113 % of control | T/C (dose: 600.0 mg/kg/injection, schedule: Q04DX003 (ip), vehicle: saline with Tween-80): 150 % of control

CC1=C(CO)C(=O)OC(C(C)C2CCC3C4CC5OC56C(O)C(N5CCCC5)CC(=O)C6(C)C4CCC23C)C1 (centres undefined)
T/C (dose: 8.75 mg/kg/injection, schedule: Q01DX005 (ip), vehicle: Klucel (hydroxypropylcellulose) (HPC)): 94 % of control | T/C (dose: 17.5 mg/kg/injection, schedule: Q01DX005 (ip), vehicle: Klucel (hydroxypropylcellulose) (HPC)): 97 % of control | T/C (dose: 35.0 mg/kg/injection, schedule: Q01DX005 (ip), vehicle: Klucel (hydroxypropylcellulose) (HPC)): 99 % of control | T/C (dose: 70.0 mg/kg/injection, schedule: Q01DX005 (ip), vehicle: Klucel (hydroxypropylcellulose) (HPC)): 111 % of control | T/C (dose: 140.0 mg/kg/injection, schedule: Q01DX005 (ip), vehicle: Klucel (hydroxypropylcellulose) (HPC)): 103 % of control

O=C1CCCCCCCNC(=O)CCCCCCC(=O)NCCCCCCCC(=O)NCCCCCCCCN1
T/C (dose: 50.0 mg/kg/injection, schedule: Q01DX001 (ip), vehicle: Klucel (hydroxypropylcellulose) (HPC)): 91 % of control | T/C (dose: 100.0 mg/kg/injection, schedule: Q01DX001 (ip), vehicle: Klucel (hydroxypropylcellulose) (HPC)): 90 % of control | T/C (dose: 200.0 mg/kg/injection, schedule: Q01DX001 (ip), vehicle: Klucel (hydroxypropylcellulose) (HPC)): 86 % of control and 89 % of control | T/C (dose: 400.0 mg/kg/injection, schedule: Q01DX001 (ip), vehicle: Klucel (hydroxypropylcellulose) (HPC)): 89 % of control

Cc1cc2c(cc1[N+](=O)[O-])NC(CNC(C)C)CC2 (centres undefined)
T/C (dose: 50.0 mg/kg/injection, schedule: Q01DX009 (ip), vehicle: saline with Tween-80): 101 % of control | T/C [10]: 105 % of control | T/C (dose: 200.0 mg/kg/injection, schedule: Q01DX009 (ip), vehicle: saline with Tween-80): 108 % of control

Cn1c2ccccc2c2oc(-c3nn[nH]n3)cc(=O)c21
T/C [1]: 97 % of control | T/C [2]: 105 % of control | T/C [3]: 100 % of control

Oc1ccc(O)c2c1C1(Cl)C(Cl)=C(Cl)C2(Cl)C1(Cl)Cl
T/C (dose: 100.0 mg/kg/injection, schedule: Q04DX003 (ip), vehicle: other): 100 % of control | T/C (dose: 200.0 mg/kg/injection, schedule: Q04DX003 (ip), vehicle: other): 104 % of control | T/C (dose: 400.0 mg/kg/injection, schedule: Q04DX003 (ip), vehicle: other): 113 % of control

O=c1ccnc(Nc2ccc[nH]c2=S)[nH]1
T/C [4]: 100 % of control | T/C (dose: 60.0 mg/kg/injection, schedule: Q01DX005 (ip), vehicle: saline with Tween-80): 105 % of control | T/C [5]: 99 % of control | T/C (dose: 120.0 mg/kg/injection, schedule: Q01DX005 (ip), vehicle: saline with Tween-80): 105 % of control | T/C [6]: 93 % of control | T/C (dose: 240.0 mg/kg/injection, schedule: Q01DX005 (ip), vehicle: saline with Tween-80): 100 % of control

CC(=O)OC1Cc2c(cc3c4c(cccc24)N(C(C)=O)C3)N(C)C1 (centres undefined)
T/C [7]: 105 % of control | T/C [8]: 108 % of control | T/C [9]: 100 % of control
